In patent US8765982B2, “Synergistic anticoagulant composition” (priority 2009, dated 2014):

What was measured:
blood clotting [1] = assay: Rat feeding study: overall effect on blood clotting and on the anticoagulant activity of warfarin; type: in vivo, Sprague-Dawley rats; conditions: rats; for effect on blood clotting time and levels of clotting factors, compound alone (in words): without warfarin, all three doses
From the text: The containers were modified to prevent spillage. Rats were provided with water ad libitum.
Thus diets were constructed at 0.1 mpk/d. 1 mpk/d and 10 mpk/d.
Control to evaluate potentiation or diminution of warfarin effect.

clotting factor X = assay: Rat feeding study: level of active coagulation factor X; type: in vivo, Sprague-Dawley rats; conditions: rats, in feed
From the text: (§1) Male, albino, Sprague-Dawley rats (n=100) weighing 150-175 g were placed in quarantine for 1 week and then housed in individual cages. To determine food consumption, rat chow in containers was weighed at the beginning and end of the day to determine the weight of the food consumed by each animal. The containers were modified to prevent spillage. Rats were provided with water ad libitum. The chow was composed of rolled oats, sugar and peanut oil (92:4:4) (w:w:w) plus a standard vitamin/mineral mix.
(§2) Administration of anticoagulant was accomplished by uniformly dispersing the compound in the peanut oil used in the chow. […] […] Actual concentration of the drug to be applied will be based on the average food consumption determined for the rats.
(§3) Groups of rats were established as follows for each UWEC-K compound:
(§4) • A. Diet (Negative) controls: no anticoagulant additive to food • B. Positive controls: food treated with warfarin at LD50 concentration for a rat weighing 180 g • C. Control to evaluate potentiation or diminution of warfarin effect. […] The groups will be repeated for each of the two compounds. Four animals in each group were anaesthetized at 96 hours, and exsanguinated by cardiac puncture. Prior to exsanguination each animal was anesthetized by the intraperitoneal injection of 50 mg/kg of sodium pentothal. Blood was collected in 3.2% citrate in pediatric tubes and tested for prothrombin time and active coagulation factors VII and X. Factor V will also be tested as a marker of potential hepatic toxicity. […] Animals were monitored twice daily and any animals found in apparent distress with be immediately sacrificed as above.

[2] = Rat feeding study: toxicity control (LDH, AST, ALT, Alkaline Phosphatase, creatinine in plasma and serum); conditions: rats, in feed
From the text: as §1, §2, §3, §4

clotting factor VII = assay: Rat feeding study: level of active coagulation factor VII; type: in vivo, Sprague-Dawley rats; conditions: rats, in feed
From the text: as §1, §2, §3, §4

blood clotting [3] = assay: Rat feeding study: prothrombin time; type: in vivo, Sprague-Dawley rats; parameters: Pro Time: unit not given beside the values; conditions: rats, in feed
From the text: as §1, §2, §3, §4

blood clotting [4] = conditions: 0.25 mg/kg, rats of approximately 200 gm BW; cited from earlier work
rat = conditions: for 5 days; cited from earlier work

For `CC(=O)Oc1c2c(c(OC(C)=O)c3ccccc13)[C@H]1C=C[C@@H]2C1` [UWEC-K1], the “effect on blood clotting time and levels of clotting factors, compound alone (in words)” value (blood clotting [1]; 4 days) was “do not differ significantly from control”, the “effect on the activity of warfarin (in words)” value (blood clotting [1]; 10 days of co-administration with warfarin) was “significantly enhance the effect of warfarin” and the “effect on blood clotting time and levels of clotting factors, compound alone (in words)” value (blood clotting [1]; 10 days) was “do not differ significantly from control”. The X % (clotting factor X; 4 days, 0.025 mpk) was 74.50%, the X % (clotting factor X; 4 days, 0.25 mpk) was 65.33% and the X % (clotting factor X; 4 days, 2.5 mpk) was 64.25%. The X % (clotting factor X; 10 days, 0.025 mpk) was 68.00%, the X % (clotting factor X; 10 days, 0.25 mpk) was 61.17% and the X % (clotting factor X; 10 days, 2.5 mpk) was 61.00%. The ALT ([2]; 4 days, 0.025 mpk) was 37.67, the AST ([2]; 4 days, 0.025 mpk) was 121.00 and the “Alk Phos” value ([2]; 4 days, 0.025 mpk) was 170.67. The Creat. ([2]; 4 days, 0.025 mpk) was 0.15, the LDH ([2]; 4 days, 0.025 mpk) was 1075.33 and the ALT ([2]; 4 days, 0.25 mpk) was 41.75. For the same molecule, the AST ([2]; 4 days, 0.25 mpk) was 152.75, the “Alk Phos” value ([2]; 4 days, 0.25 mpk) was 245.75 and the Creat. ([2]; 4 days, 0.25 mpk) was 0.10. For the same molecule, the LDH ([2]; 4 days, 0.25 mpk) was 1168.00, the ALT ([2]; 4 days, 2.5 mpk) was 39.00 and the AST ([2]; 4 days, 2.5 mpk) was 125.67. For the same molecule, the “Alk Phos” value ([2]; 4 days, 2.5 mpk) was 230.67, the Creat. ([2]; 4 days, 2.5 mpk) was 0.10 and the LDH ([2]; 4 days, 2.5 mpk) was 1304.67. The ALT ([2]; 10 days, 0.025 mpk) was 49.33, the AST ([2]; 10 days, 0.025 mpk) was 134.67 and the “Alk Phos” value ([2]; 10 days, 0.025 mpk) was 252.17. It also gave a Creat. ([2]; 10 days, 0.025 mpk) of 0.13, an LDH ([2]; 10 days, 0.025 mpk) of 1697.17 and an ALT ([2]; 10 days, 0.25 mpk) of 48.33. The AST ([2]; 10 days, 0.25 mpk) was 121.33, the “Alk Phos” value ([2]; 10 days, 0.25 mpk) was 283.50 and the Creat. ([2]; 10 days, 0.25 mpk) was 0.15. The LDH ([2]; 10 days, 0.25 mpk) was 1330.33, the ALT ([2]; 10 days, 2.5 mpk) was 49.33 and the AST ([2]; 10 days, 2.5 mpk) was 124.67. For the same molecule, the “Alk Phos” value ([2]; 10 days, 2.5 mpk) was 264.00, the Creat. ([2]; 10 days, 2.5 mpk) was 0.15 and the LDH ([2]; 10 days, 2.5 mpk) was 1663.83. The VII % (clotting factor VII; 4 days, 0.025 mpk) was 346.75%, the VII % (clotting factor VII; 4 days, 0.25 mpk) was 351.33% and the VII % (clotting factor VII; 4 days, 2.5 mpk) was 370.75%. It also gave a VII % (clotting factor VII; 10 days, 0.025 mpk) of 364.00%, a VII % (clotting factor VII; 10 days, 0.25 mpk) of 304.67% and a VII % (clotting factor VII; 10 days, 2.5 mpk) of 286.83%. The “Pro Time” value (blood clotting [3]; 4 days, 0.025 mpk) was 11.18, the “Pro Time” value (blood clotting [3]; 4 days, 0.25 mpk) was 11.60 and the “Pro Time” value (blood clotting [3]; 4 days, 2.5 mpk) was 11.78. For the same molecule, the “Pro Time” value (blood clotting [3]; 10 days, 0.025 mpk) was 11.37, the “Pro Time” value (blood clotting [3]; 10 days, 0.25 mpk) was 11.72 and the “Pro Time” value (blood clotting [3]; 10 days, 2.5 mpk) was 11.63.

In the case of `CC(=O)CC(c1ccccc1)c1c(O)c2ccccc2oc1=O` (stereo not drawn) [Warfarin, warfarin, reference compound], the INR maintained (blood clotting [4]) is given as 2.6, the X % (clotting factor X; 4 days, 0.25 mpk) is given as 10.00% and the X % (clotting factor X; 10 days, 0.25 mpk) is given as 14.85%. The ALT ([2]; 4 days, 0.25 mpk) was 46.00, the AST ([2]; 4 days, 0.25 mpk) was 123.25 and the “Alk Phos” value ([2]; 4 days, 0.25 mpk) was 242.30. It also gave a Creat. ([2]; 4 days, 0.25 mpk) of 0.11, an LDH ([2]; 4 days, 0.25 mpk) of 1168.88 and an ALT ([2]; 10 days, 0.25 mpk) of 48.09. The AST ([2]; 10 days, 0.25 mpk) was 91.82, the “Alk Phos” value ([2]; 10 days, 0.25 mpk) was 249.73 and the Creat. ([2]; 10 days, 0.25 mpk) was 0.15. The LDH ([2]; 10 days, 0.25 mpk) was 626.18, the VII % (clotting factor VII; 4 days, 0.25 mpk) was 29.54% and the VII % (clotting factor VII; 10 days, 0.25 mpk) was 56.18%. The “Pro Time” value (blood clotting [3]; 4 days, 0.25 mpk) was 36.98, the “Pro Time” value (blood clotting [3]; 10 days, 0.25 mpk) was 24.38 and the LD50 (rat) was 1 mg/kg/day.
